Here are results for 17 compounds from ChEMBL document CHEMBL1133819, “Structure-based design of caspase-1 inhibitor containing a diphenyl ether sulfonamide” (Bioorg Med Chem Lett, 2001).

A word on the Ki: it is the dissociation constant of the complex between target and ligand, obtained from inhibition or displacement. Lower therefore signals a stronger hold on the target. By IC50 is commonly meant the concentration needed to halve the response being measured. Low readings indicate greater potency, high ones weaker potency.

The structures appear in SMILES notation.

The target in test [1] is T1, Caspase-1 (Homo sapiens, UniProt P29466).
T1 sequence (P29466 whole entry): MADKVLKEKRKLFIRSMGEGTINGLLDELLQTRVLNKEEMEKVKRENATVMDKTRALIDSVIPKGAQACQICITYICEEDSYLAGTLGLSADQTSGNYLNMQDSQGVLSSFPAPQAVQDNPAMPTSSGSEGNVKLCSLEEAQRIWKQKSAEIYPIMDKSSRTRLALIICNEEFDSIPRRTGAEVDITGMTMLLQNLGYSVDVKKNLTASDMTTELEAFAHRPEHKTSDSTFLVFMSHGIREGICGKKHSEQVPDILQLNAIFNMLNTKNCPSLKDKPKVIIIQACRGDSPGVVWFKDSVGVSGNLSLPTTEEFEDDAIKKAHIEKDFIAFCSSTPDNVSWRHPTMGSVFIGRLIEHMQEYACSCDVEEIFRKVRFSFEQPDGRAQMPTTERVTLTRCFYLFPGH
Briefly: Binding affinity towards caspase-1 was determined.

Test [2] concerns the target T1, Caspase-1. Briefly: Inhibitory concentration against caspase-1 was determined.

In the case of `O=C[C@@H](NS(=O)(=O)c1ccccc1Oc1ccc(-c2ccc(C(=O)O)cc2)cc1)C(=O)O`, in test [1], the Ki is 4200 nM. Further, the IC50 in test [2] was 58000 nM.

`CC(C)c1cccc(Oc2ccccc2S(=O)(=O)N[C@H](C=O)C(=O)O)c1` gave a Ki in test [1] of 410 nM. Also, in test [2], the IC50 was 3700 nM.

Turning to `O=C[C@@H](NS(=O)(=O)c1ccccc1Oc1ccc(C2CCCC2)cc1)C(=O)O`, the Ki in test [1] turned out to be 880 nM. In addition, in test [2], the IC50 was found to be 4800 nM.

Take `Cc1cccc(Oc2ccccc2S(=O)(=O)N[C@H](C=O)C(=O)O)c1C`: affinity in test [1] was put at a Ki of 1000 nM. Further, the half-maximal inhibitory concentration (IC50) in test [2] came to 13000 nM.

For the compound `CCC(C)c1ccc(Oc2ccccc2S(=O)(=O)N[C@H](C=O)C(=O)O)cc1` (some centres undefined), the Ki in test [1] came out at 490 nM. Besides, the IC50 in test [2] came to 2200 nM.

Regarding `O=C[C@@H](NS(=O)(=O)c1ccccc1Oc1ccccc1)C(=O)O`, in test [1], the Ki was found to be 24000 nM. The same compound came in with an IC50 in test [2] of 24000 nM.

Compound `Cc1cccc(Oc2ccccc2S(=O)(=O)N[C@H](C=O)C(=O)O)c1` returned a Ki in test [1] of 430 nM. This compound also came in with an IC50 in test [2] of 11000 nM.

For the compound `CCC(CC)c1ccc(Oc2ccccc2S(=O)(=O)N[C@H](C=O)C(=O)O)cc1`, in test [1], the affinity, expressed as Ki, was 440 nM. The compound further returned an IC50 in test [2] of 3500 nM.

For `O=C[C@@H](NS(=O)(=O)c1ccccc1-c1ccccc1)C(=O)O`, the Ki in test [1] was 1600 nM. Half-maximal inhibition in test [2] (IC50) was put at 20000 nM.

Take `CCC(C)c1ccc(Oc2ccccc2S(=O)(=O)N[C@H](C=O)C(=O)O)cc1C` (some centres undefined): the affinity in test [1], expressed as Ki, was 100 nM. Moreover, the half-maximal inhibitory concentration (IC50) in test [2] was 1000 nM.

As for `O=C[C@@H](NS(=O)(=O)c1ccccc1Oc1ccc(C2CCCCC2)cc1)C(=O)O`, the affinity in test [1] corresponds to a Ki of 900 nM. The compound further yielded a concentration for half-maximal inhibition (IC50) in test [2] of 4300 nM.

For `O=C[C@@H](NS(=O)(=O)c1ccccc1Oc1ccc(-c2ccccc2)cc1)C(=O)O`, the affinity in test [1] corresponds to a Ki of 290 nM. The compound also showed an IC50 in test [2] of 4400 nM.

Take `CC(C)c1ccc(Oc2ccccc2S(=O)(=O)N[C@H](C=O)C(=O)O)cc1`: in test [1], the affinity, expressed as Ki, was 620 nM. In addition, in test [2], inhibition was half-maximal at 5300 nM (IC50).

`Cc1cc(Oc2ccccc2S(=O)(=O)N[C@H](C=O)C(=O)O)ccc1C(C)C`: the Ki in test [1] amounted to 110 nM. In test [2], this compound yielded an IC50 of 1000 nM.

Take `Cc1ccc(Oc2ccccc2S(=O)(=O)N[C@H](C=O)C(=O)O)cc1`: affinity in test [1] was put at a Ki of 1100 nM. Besides, the IC50 in test [2] amounted to 9000 nM.

Regarding `Cc1cc(Oc2ccccc2S(=O)(=O)N[C@H](C=O)C(=O)O)cc(C)c1C`, the Ki in test [1] turned out to be 450 nM. This compound displayed an IC50 in test [2] of 7800 nM.

For `Cc1ccccc1Oc1ccccc1S(=O)(=O)N[C@H](C=O)C(=O)O`, the Ki in test [1] worked out at 3000 nM. Further, 14000 nM corresponded to half-maximal inhibition in test [2] (IC50).
